Assay results: patent US9561228B2 (Celgene Avilomics Research, Inc., priority 2013, dated 2017)

How the values were obtained:
[1] = tested on: ERK1/2 phosphorylation of p90RSK in A375 cells; test: Detection of total and phosphor-RSK by MSD ELISA (A375); type: cell-based; details: Homo sapiens, A-375, read-out: ERK1/ERK2 PRSK A375 EC50
How it was run: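 Electrochemiluminescent MSD ELISA: common RSK capture antibody, with pRSK Ser380 or total RSK detection antibodies plus SulfoTag secondaries. Samples were lysates of A375 cells exposed to compound for 2 h at 37° C after overnight culture in 0.1% FBS DMEM.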

[2] = tested on: ERK1/2 phosphorylation of p90RSK in HCT116 cells; test: Detection of total and phospho-RSK by MSD ELISA (HCT116); type: cell-based; details: Homo sapiens, HCT-116, read-out: ERK1/ERK2 PRSK HCT116 EC50
How it was run: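 ERK1/2 activity read in cells as p90RSK phosphorylation: lysates from HCT116 cells given compound for 2 h at 37° C were captured on MSD plates. Detection used a pSer380 RSK or a total RSK antibody with SulfoTag secondaries.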

| EC50 [1] | EC50 [2] | SMILES |
| --- | --- | --- |
| 101 to 500 nM | 101 to 500 nM | C=CC(=O)Nc1cc(C)ccc1Nc1nc(Nc2nc(OC)ncc2C(F)(F)F)ncc1C(F)(F)F [Compound I-355, N-(2-((2-((2-methoxy-5-(trifluoromethyl)pyrimidin-4-yl)amino)-5-(trifluoromethyl)pyrimidin-4-yl)amino)-5-methylphenyl)acrylamide] |
| 101 to 500 nM | 101 to 500 nM | C=CC(=O)Nc1cc(C)ccc1Nc1nc(Nc2nc(OC)ncc2OC)ncc1C(F)(F)F [Compound I-349, N-(2-((2-((2,5-dimethoxypyrimidin-4-yl)amino)-5-(trifluoromethyl)pyrimidin-4-yl)amino)-5-methylphenyl)acrylamide] |
| > 1000 nM | > 1000 nM | C=CC(=O)Nc1ccc(OCC(N)=O)cc1Nc1nc(NC2CCOCC2)ncc1C(F)(F)F [Compound I-395, N-(4-(2-amino-2-oxoethoxy)-2-((2-((tetrahydro-2H-pyran-4-yl)amino)-5-(trifluoromethyl)pyrimidin-4-yl)amino)phenyl)acrylamide] |
| > 1000 nM | > 1000 nM | C=CC(=O)Nc1cc(C)ccc1Nc1nc(Nc2cc(C(F)(F)F)nn2C)ncc1C(F)(F)F [Compound I-419, N-(5-methyl-2-((2-((1-methyl-3-(trifluoromethyl)-1H-pyrazol-5-yl)amino)-5-(trifluoromethyl)pyrimidin-4-yl)amino)phenyl)acrylamide] |
| < 100 nM | < 100 nM | C=CC(=O)Nc1cc(C)c(F)cc1Nc1nc(Nc2nc(OC)ncc2Cl)ncc1C(F)(F)F [Compound I-374, N-(2-((2-((5-chloro-2-methoxypyrimidin-4-yl)amino)-5-(trifluoromethyl)pyrimidin-4-yl)amino)-4-fluoro-5-methylphenyl)acrylamide] |
| > 1000 nM | > 1000 nM | C=CC(=O)Nc1cc(C)ccc1Nc1nc(NCC2COC2)ncc1C(F)(F)F [Compound I-417, N-(5-methyl-2-((2-((oxetan-3-ylmethyl)amino)-5-(trifluoromethyl)pyrimidin-4-yl)amino)phenyl)acrylamide] |
| 101 to 500 nM | 501 to 999 nM | C=CC(=O)Nc1cc(C)ccc1Nc1nc(Nc2nc(OC)ccc2Cl)ncc1C(F)(F)F [Compound I-360, N-(2-((2-((3-chloro-6-methoxypyridin-2-yl)amino)-5-(trifluoromethyl)pyrimidin-4-yl)amino)-5-methylphenyl)acrylamide] |
| 101 to 500 nM | 101 to 500 nM | C=CC(=O)Nc1cc(OCCN2CCN(C(C)=O)CC2)ccc1Nc1nc(Nc2cc(OC)ncc2C)ncc1C(F)(F)F [Compound I-416, N-(5-(2-(4-acetylpiperazin-1-yl)ethoxy)-2-((2-((2-methoxy-5-methylpyridin-4-yl)amino)-5-(trifluoromethyl)pyrimidin-4-yl)amino)phenyl)acrylamide] |
| < 100 nM | < 100 nM | C=CC(=O)Nc1cc(CN2CCN(C(=O)c3cccnc3)CC2)ccc1Nc1nc(Nc2cc(OC)ncc2C)ncc1C(F)(F)F [Compound I-389, N-(2-((2-((2-methoxy-5-methylpyridin-4-yl)amino)-5-(trifluoromethyl)pyrimidin-4-yl)amino)-5-((4-nicotinoylpiperazin-1-yl)methyl)phenyl)acrylamide] |
| > 1000 nM | > 1000 nM | C=CC(=O)Nc1cc(C)ccc1Nc1nc(Nc2cnc(OC)cc2C)ncc1C(F)(F)F [Compound I-350, N-(2-((2-((6-methoxy-4-methylpyridin-3-yl)amino)-5-(trifluoromethyl)pyrimidin-4-yl)amino)-5-methylphenyl)acrylamide] |
| 101 to 500 nM | 101 to 500 nM | C=CC(=O)Nc1cc(OCCN)ccc1Nc1nc(Nc2cc(OC)ncc2C)ncc1C(F)(F)F [Compound I-396, N-(5-(2-aminoethoxy)-2-((2-((2-methoxy-5-methylpyridin-4-yl)amino)-5-(trifluoromethyl)pyrimidin-4-yl)amino)phenyl)acrylamide] |
| 101 to 500 nM | 501 to 999 nM | C=CC(=O)Nc1cc(C)ccc1Nc1nc(Nc2cc(OCCOC)ncc2C)ncc1C(F)(F)F [Compound I-359, N-(2-((2-((2-(2-methoxyethoxy)-5-methylpyridin-4-yl)amino)-5-(trifluoromethyl)pyrimidin-4-yl)amino)-5-methylphenyl)acrylamide] |
| 501 to 999 nM | > 1000 nM | C=CC(=O)Nc1cc(C)c(C#N)cc1Nc1nc(NC2CCOCC2)ncc1C(F)(F)F [Compound I-397, N-(4-cyano-5-methyl-2-((2-((tetrahydro-2H-pyran-4-yl)amino)-5-(trifluoromethyl)pyrimidin-4-yl)amino)phenyl)acrylamide] |
| 101 to 500 nM | 501 to 999 nM | C=CC(=O)Nc1cc(C)ccc1Nc1nc(Nc2cc(OCC)ncc2C)ncc1C(F)(F)F [Compound I-358, N-(2-((2-((2-ethoxy-5-methylpyridin-4-yl)amino)-5-(trifluoromethyl)pyrimidin-4-yl)amino)-5-methylphenyl)acrylamide] |
| < 100 nM | < 100 nM | C=CC(=O)Nc1cc(CN2CCN(C(C)=O)CC2)ccc1Nc1nc(Nc2cc(OC)ncc2C)ncc1C(F)(F)F [Compound I-381, N-(5-((4-acetylpiperazin-1-yl)methyl)-2-((2-((2-methoxy-5-methylpyridin-4-yl)amino)-5-(trifluoromethyl)pyrimidin-4-yl)amino)phenyl)acrylamide] |
| > 1000 nM | 501 to 999 nM | C=CC(=O)Nc1cc(C)ccc1Nc1nc(Nc2c[nH]c(=O)cc2C)ncc1C(F)(F)F [Compound I-370, N-(5-methyl-2-((2-((4-methyl-6-oxo-1,6-dihydropyridin-3-yl)amino)-5-(trifluoromethyl)pyrimidin-4-yl)amino)phenyl)acrylamide] |
| < 100 nM | < 100 nM | C=CC(=O)Nc1cc(CN2CCN(C(=O)c3cnccn3)CC2)ccc1Nc1nc(Nc2cc(OC)ncc2C)ncc1C(F)(F)F [Compound I-390, N-(2-((2-((2-methoxy-5-methylpyridin-4-yl)amino)-5-(trifluoromethyl)pyrimidin-4-yl)amino)-5-((4-(pyrazine-2-carbonyl)piperazin-1-yl)methyl)phenyl)acrylamide] |
| < 100 nM | < 100 nM | C=CC(=O)Nc1cc(CN2CCN(S(C)(=O)=O)CC2)ccc1Nc1nc(Nc2cc(OC)ncc2C)ncc1C(F)(F)F [Compound I-384, N-(2-((2-((2-methoxy-5-methylpyridin-4-yl)amino)-5-(trifluoromethyl)pyrimidin-4-yl)amino)-5-((4-(methylsulfonyl)piperazin-1-yl)methyl)phenyl)acrylamide] |
| 101 to 500 nM | 501 to 999 nM | C=CC(=O)Nc1cc(CCc2cnn(C)c2)ccc1Nc1nc(Nc2cc(OC)ncc2C)ncc1C(F)(F)F [Compound I-427, N-(2-((2-((2-methoxy-5-methylpyridin-4-yl)amino)-5-(trifluoromethyl)pyrimidin-4-yl)amino)-5-(2-(1-methyl-1H-pyrazol-4-yl)ethyl)phenyl)acrylamide] |
| 101 to 500 nM | 101 to 500 nM | C=CC(=O)Nc1cc(C)ccc1Nc1nc(Nc2ncc(C(F)(F)F)c(OC)n2)ncc1C(F)(F)F [Compound I-354, N-(2-((2-((4-methoxy-5-(trifluoromethyl)pyrimidin-2-yl)amino)-5-(trifluoromethyl)pyrimidin-4-yl)amino)-5-methylphenyl)acrylamide] |
| > 1000 nM | 501 to 999 nM | C=CC(=O)Nc1cc(CN2CCN(C(=O)c3cnccn3)CC2)ccc1Nc1nc(Nc2nc(OC)ncc2C)ncc1C(F)(F)F [Compound I-393, N-(2-((2-((2-methoxy-5-methylpyrimidin-4-yl)amino)-5-(trifluoromethyl)pyrimidin-4-yl)amino)-5-((4-(pyrazine-2-carbonyl)piperazin-1-yl)methyl)phenyl)acrylamide] |
| < 100 nM | 101 to 500 nM | C=CC(=O)Nc1cc(O[C@@H](C)C(N)=O)ccc1Nc1nc(Nc2cc(OC)ncc2C)ncc1C(F)(F)F [Compound I-412, (S)—N-(5-((1-amino-1-oxopropan-2-yl)oxy)-2-((2-((2-methoxy-5-methylpyridin-4-yl)amino)-5-(trifluoromethyl)pyrimidin-4-yl)amino)phenyl)acrylamide] |
| 101 to 500 nM | 501 to 999 nM | C=CC(=O)Nc1c(Nc2nc(Nc3cc(OC)ncc3C)ncc2C(F)(F)F)ccc(C)c1F [Compound I-367, N-(2-fluoro-6-((2-((2-methoxy-5-methylpyridin-4-yl)amino)-5-(trifluoromethyl)pyrimidin-4-yl)amino)-3-methylphenyl)acrylamide] |
| < 100 nM | < 100 nM | C=CC(=O)Nc1cc(OCC(N)=O)ccc1Nc1nc(Nc2cc(OC)ncc2C)ncc1C(F)(F)F [Compound I-398, N-(5-(2-amino-2-oxoethoxy)-2-((2-((2-methoxy-5-methylpyridin-4-yl)amino)-5-(trifluoromethyl)pyrimidin-4-yl)amino)phenyl)acrylamide] |
| > 1000 nM | > 1000 nM | C=CC(=O)Nc1cc(C)ccc1Nc1nc(Nc2cc(OC(C)C)ncc2C)ncc1C(F)(F)F [Compound I-369, N-(2-((2-((2-isopropoxy-5-methylpyridin-4-yl)amino)-5-(trifluoromethyl)pyrimidin-4-yl)amino)-5-methylphenyl)acrylamide] |
| 101 to 500 nM | > 1000 nM | C=CC(=O)Nc1cc(C)ccc1Nc1nc(Nc2ccc3ocnc3c2)ncc1C(F)(F)F [Compound I-375, N-(2-((2-(benzo[d]oxazol-5-ylamino)-5-(trifluoromethyl)pyrimidin-4-yl)amino)-5-methylphenyl)acrylamide] |

| SMILES | EC50 [1] | EC50 [2] |
| --- | --- | --- |
| C=CC(=O)Nc1cc(C)ccc1Nc1nc(Nc2cc(OC)nc(OC)c2)ncc1C(F)(F)F [Compound I-96] | 101 to 500 nM |  |
